We go through one compound from ChEMBL document CHEMBL6115048, “Uncovering α-Selectivity for Liver X Receptor Agonists for Lipotoxic Cancer Therapies” (J Med Chem, 2025).

The test system of data set [1] is Hepatocellular carcinoma organoid. As to the kind of experiment: Antiproliferative activity against C57BL/6 mouse Hepatocellular carcinoma organoids harboring myristoylated Akt1 and overexpressing Myc assessed as reduction in cell viability at 1 to 5 uM measured after 5 days in presence of sorafenib by Celltiter-glo assay. It is filed as functional, tissue-based. The conditions noted are these: Neoplasm, dose 1-5 µM, time 5.0 day.

The test system of data set [2] is AML12. The data set can be described thus: Cytotoxicity against mouse AML12 cells assessed as reduction in cell viability at 0.01 to 100 uM measured after 5 days in presence of sorafenib by CellTiter-Glo assay. The class given is toxicity, cell-based. As to conditions: aml12, 120 h, dose 0.01-100 µM, time 5 day. (In general: ATP-based viability assays read luminescence as a measure of living cells.)

For data set [3], the target named is T1, Estrogen receptor (Homo sapiens) (UniProt P03372).
T1 sequence (whole entry): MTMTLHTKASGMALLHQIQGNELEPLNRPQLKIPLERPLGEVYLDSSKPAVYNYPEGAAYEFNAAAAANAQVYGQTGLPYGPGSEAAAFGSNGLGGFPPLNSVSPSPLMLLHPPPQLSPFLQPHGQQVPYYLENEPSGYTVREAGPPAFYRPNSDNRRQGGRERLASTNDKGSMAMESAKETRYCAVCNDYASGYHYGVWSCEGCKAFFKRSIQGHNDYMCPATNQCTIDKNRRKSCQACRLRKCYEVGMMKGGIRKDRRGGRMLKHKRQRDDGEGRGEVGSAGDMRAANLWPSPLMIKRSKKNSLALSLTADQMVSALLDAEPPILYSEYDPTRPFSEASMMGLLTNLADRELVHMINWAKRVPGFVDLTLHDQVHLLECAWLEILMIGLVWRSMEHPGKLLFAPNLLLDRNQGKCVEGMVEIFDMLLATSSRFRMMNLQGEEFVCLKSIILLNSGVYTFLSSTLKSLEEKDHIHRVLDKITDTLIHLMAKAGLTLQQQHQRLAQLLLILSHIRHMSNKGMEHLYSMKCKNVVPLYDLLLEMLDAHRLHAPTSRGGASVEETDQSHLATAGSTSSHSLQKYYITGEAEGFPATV
The data set can be described thus: Agonist activity at ERalpha (unknown origin) transfected in human HepG2 cells co-transfected with renilla reniformis luciferase reporter at 10 uM incubated for 24 hrs by dual-luciferase reporter gene assay. It is filed as cell-based. On the technique in general: A reporter such as luciferase makes a cellular process visible.

In data set [4] the test system is Hep 3B2. As to the kind of experiment: Induction of endoplasmic reticulum (ER) stress in human Hep3B cells assessed as increase in GADD34 expression measured after 3 days in presence of sorafenib by Western blot analysis. The class given is functional, cell-based. As to conditions: time 3.0 day.
The target of data set [5] is T2, Vitamin D3 receptor (Homo sapiens) (UniProt P11473).
T2 sequence (whole entry): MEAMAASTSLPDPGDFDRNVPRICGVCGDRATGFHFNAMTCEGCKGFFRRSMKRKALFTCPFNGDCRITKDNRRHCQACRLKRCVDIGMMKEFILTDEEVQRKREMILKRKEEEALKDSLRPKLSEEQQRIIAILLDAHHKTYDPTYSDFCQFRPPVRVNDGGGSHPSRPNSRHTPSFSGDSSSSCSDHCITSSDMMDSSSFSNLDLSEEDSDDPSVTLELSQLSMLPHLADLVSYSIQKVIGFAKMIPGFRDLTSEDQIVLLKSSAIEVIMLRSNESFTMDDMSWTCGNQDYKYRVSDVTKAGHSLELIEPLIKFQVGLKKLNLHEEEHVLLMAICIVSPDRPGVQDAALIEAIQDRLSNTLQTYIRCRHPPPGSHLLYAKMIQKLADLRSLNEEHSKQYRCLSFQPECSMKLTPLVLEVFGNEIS
The data set can be described thus: Agonist activity at VDR (unknown origin) transfected in human HepG2 cells co-transfected with renilla reniformis luciferase reporter at 10 uM incubated for 24 hrs by dual-luciferase reporter gene assay. The class given is cell-based.

Data set [6] concerns Hep 3B2. As to the kind of experiment: Induction of endoplasmic reticulum (ER) stress in human Hep3B cells assessed as increase in CHOP expression measured after 3 days in presence of sorafenib by Western blot analysis. It is filed as functional, cell-based. The conditions noted are these: time 3.0 day.
The subject of data set [7] is BNL CL.2. As to the kind of experiment: Cytotoxicity against mouse BNL CL.2 cells assessed as reduction in cell viability at 0.01 to 100 uM measured after 5 days in presence of sorafenib by CellTiter-Glo assay. It is filed as toxicity, cell-based. The conditions noted are these: bnl cl.2, 120 h, dose 0.01-100 µM, time 5 day.
The subject of data set [8] is Hep 3B2. The data set can be described thus: Antiproliferative activity against human Hep3B cells assessed as reduction in cell viability measured after 5 days by Celltiter-glo assay. It is filed as functional, cell-based. The conditions noted are these: time 5.0 day.
Data set [9] addresses T3, Aryl hydrocarbon receptor (Homo sapiens, UniProt P35869).
T3 sequence (P35869 whole entry): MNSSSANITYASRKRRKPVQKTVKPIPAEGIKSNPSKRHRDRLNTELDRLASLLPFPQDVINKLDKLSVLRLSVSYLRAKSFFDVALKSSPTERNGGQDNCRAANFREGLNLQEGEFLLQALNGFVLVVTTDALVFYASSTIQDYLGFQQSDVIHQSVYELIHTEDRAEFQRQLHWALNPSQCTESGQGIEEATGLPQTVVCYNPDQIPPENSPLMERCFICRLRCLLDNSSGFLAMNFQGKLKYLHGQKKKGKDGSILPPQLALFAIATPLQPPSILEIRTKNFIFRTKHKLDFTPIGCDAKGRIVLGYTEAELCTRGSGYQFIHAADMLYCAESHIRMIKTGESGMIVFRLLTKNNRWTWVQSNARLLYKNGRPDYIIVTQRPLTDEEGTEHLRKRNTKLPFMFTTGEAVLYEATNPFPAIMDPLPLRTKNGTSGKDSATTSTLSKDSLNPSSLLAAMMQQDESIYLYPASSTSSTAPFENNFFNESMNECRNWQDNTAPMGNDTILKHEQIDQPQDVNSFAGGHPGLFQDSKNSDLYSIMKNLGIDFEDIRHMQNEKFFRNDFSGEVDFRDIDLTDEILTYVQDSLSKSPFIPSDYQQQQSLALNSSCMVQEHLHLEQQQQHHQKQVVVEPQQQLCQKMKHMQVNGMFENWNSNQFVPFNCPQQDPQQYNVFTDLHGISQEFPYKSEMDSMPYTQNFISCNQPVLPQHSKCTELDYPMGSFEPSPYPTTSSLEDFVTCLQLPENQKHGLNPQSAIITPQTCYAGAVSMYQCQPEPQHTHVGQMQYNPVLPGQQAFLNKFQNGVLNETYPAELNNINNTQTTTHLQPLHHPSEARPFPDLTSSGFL
The data set can be described thus: Agonist activity at AhR (unknown origin) transfected in human HepG2 cells co-transfected with renilla reniformis luciferase reporter at 10 uM incubated for 24 hrs by dual-luciferase reporter gene assay. The class given is cell-based. The conditions noted are these: hepg2, 24 h.

Calls of active or inactive are those of the source. The rule behind the calls is not given here.

As for `O=C1C(Nc2ccc(N3CCCCC3)cc2)=C(c2ccccc2)C(=O)N1Cc1ccccc1`, the result in data set [1], in data set [4] and in data set [6] was Active. The Activity entry is “Toxic” in data set [2], “Toxic” in data set [7] and “Not_active” in data set [9]. Besides, the result in data set [3], in data set [5] and in [8] was inactive.
